pIC50: −log10 of the molar value.
Target: Sodium-dependent noradrenaline transporter (Homo sapiens, UniProt P23975)
Test: Compound was tested for its ability to inhibit the uptake of Norepinephrine in Norepinephrine transporter system
Format: functional

Sodium-dependent noradrenaline transporter, sequence (P23975 whole entry): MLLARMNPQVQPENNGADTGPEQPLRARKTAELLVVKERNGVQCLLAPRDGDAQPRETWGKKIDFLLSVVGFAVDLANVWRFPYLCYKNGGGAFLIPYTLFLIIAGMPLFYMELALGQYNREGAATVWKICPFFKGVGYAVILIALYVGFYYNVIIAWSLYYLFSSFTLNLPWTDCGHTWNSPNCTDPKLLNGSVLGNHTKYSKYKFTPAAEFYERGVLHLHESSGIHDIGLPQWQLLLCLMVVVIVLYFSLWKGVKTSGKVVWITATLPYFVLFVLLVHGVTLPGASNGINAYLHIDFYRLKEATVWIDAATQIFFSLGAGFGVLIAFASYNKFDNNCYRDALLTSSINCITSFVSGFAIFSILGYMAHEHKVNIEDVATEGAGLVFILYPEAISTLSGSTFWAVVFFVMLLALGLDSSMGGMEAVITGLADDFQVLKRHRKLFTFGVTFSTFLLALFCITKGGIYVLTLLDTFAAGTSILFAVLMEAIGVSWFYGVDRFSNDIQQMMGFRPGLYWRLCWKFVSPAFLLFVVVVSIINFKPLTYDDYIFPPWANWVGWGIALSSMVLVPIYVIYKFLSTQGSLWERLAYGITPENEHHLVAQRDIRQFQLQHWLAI

Work on `c1ccc(CCCN2CCN(CCOC(c3ccccc3)c3ccccc3)CC2)cc1` yielded a pIC50 of 5.90.

— ChEMBL document CHEMBL1130734, “Design and synthesis of a biotinylated dopamine transporter ligand for the purification and labeling of dopaminergic neurons” (Bioorg Med Chem Lett, 1998)
